Earlier results in patent US7842280B2, “Flexibly labeling peptides” (Case Western Reserve University, priority 2006, dated 2010).

Settings: Gd^3+-DOTA used in clinical MRI studies; comparison value; cited from earlier work

In the case of `O=C([O-])CN1CCN(CC(=O)[O-])CCN(CC(=O)[O-])CCN(CC(=O)[O-])CC1.[Gd+3]` [Gd^3+-DOTA], the relaxivity is listed as 3.83 m mM^−1 sec^−1.
